Measurements as given in ChEMBL document CHEMBL4507300 (2021).

Key:
[1] = molecular target: Insulin-like growth factor 1 receptor (Homo sapiens) (UniProt P08069); conditions: Compound concentration 1000.0 nM
[2] = test system: Phosphatidylinositol 4,5-bisphosphate 3-kinase catalytic subunit alpha isoform (Homo sapiens), P42336 [I800L]; conditions: Compound concentration 1000.0 nM
[3] = molecular target: Beta-1 adrenergic receptor (Homo sapiens) (UniProt P08588); conditions: Compound concentration 10.0 uM
[4] = molecular target: Ribosomal protein S6 kinase alpha-4 (Homo sapiens) (UniProt O75676); conditions: Compound concentration 1000.0 nM
[5] = molecular target: Serine/threonine-protein kinase Nek4 (Homo sapiens) (UniProt P51957); conditions: Compound concentration 1000.0 nM
[6] = molecular target: Myosin light chain kinase 2, skeletal/cardiac muscle (Homo sapiens) (UniProt Q9H1R3); conditions: Compound concentration 1000.0 nM
[7] = molecular target: Receptor-interacting serine/threonine-protein kinase 4 (Homo sapiens) (UniProt P57078); conditions: Compound concentration 1000.0 nM
[8] = molecular target: cAMP-dependent protein kinase catalytic subunit PRKX (Homo sapiens) (UniProt P51817); conditions: Compound concentration 1000.0 nM
[9] = molecular target: Homeodomain-interacting protein kinase 2 (Homo sapiens) (UniProt Q9H2X6); conditions: Compound concentration 1000.0 nM
[10] = test system: Epidermal growth factor receptor (Homo sapiens), P00533 [L861Q]; conditions: Compound concentration 1000.0 nM
[11] = test system: Leucine-rich repeat serine/threonine-protein kinase 2 (Homo sapiens), Q5S007 [G2019S]; conditions: Compound concentration 1000.0 nM
[12] = molecular target: Serine/threonine-protein kinase Sgk3 (Homo sapiens) (UniProt Q96BR1); conditions: Compound concentration 1000.0 nM
[13] = molecular target: Serine/threonine-protein kinase 26 (Homo sapiens) (UniProt Q9P289); conditions: Compound concentration 1000.0 nM
[14] = molecular target: Dual specificity protein kinase CLK3 (Homo sapiens) (UniProt P49761); conditions: Compound concentration 1000.0 nM
[15] = molecular target: SNF-related serine/threonine-protein kinase (Homo sapiens) (UniProt Q9NRH2); conditions: Compound concentration 1000.0 nM
[16] = molecular target: Mitogen-activated protein kinase kinase kinase 2 (Homo sapiens) (UniProt Q9Y2U5); conditions: Compound concentration 1000.0 nM
[17] = test system: Epidermal growth factor receptor (Homo sapiens), P00533 [G719C]; conditions: Compound concentration 1000.0 nM
[18] = molecular target: Serine/threonine-protein kinase PLK4 (Homo sapiens) (UniProt O00444); conditions: Compound concentration 1000.0 nM
[19] = molecular target: Death-associated protein kinase 1 (Homo sapiens) (UniProt P53355); conditions: Compound concentration 1000.0 nM
[20] = molecular target: Ephrin type-A receptor 6 (Homo sapiens) (UniProt Q9UF33); conditions: Compound concentration 1000.0 nM
[21] = molecular target: Aurora kinase C (Homo sapiens) (UniProt Q9UQB9); conditions: Compound concentration 1000.0 nM
[22] = molecular target: Phosphatidylinositol 5-phosphate 4-kinase type-2 beta (Homo sapiens) (UniProt P78356); conditions: Compound concentration 1000.0 nM
[23] = molecular target: Mitogen-activated protein kinase kinase kinase kinase 3 (Homo sapiens) (UniProt Q8IVH8); conditions: Compound concentration 1000.0 nM
[24] = molecular target: Histamine H4 receptor (Homo sapiens) (UniProt Q9H3N8); conditions: Compound concentration 10.0 uM
[25] = molecular target: Cyclin-dependent kinase 15 (Homo sapiens) (UniProt Q96Q40); conditions: Compound concentration 1000.0 nM
[26] = molecular target: Serine/threonine-protein kinase TAO1 (Homo sapiens) (UniProt Q7L7X3); conditions: Compound concentration 1000.0 nM
[27] = molecular target: Serine/threonine-protein kinase 33 (Homo sapiens) (UniProt Q9BYT3); conditions: Compound concentration 1000.0 nM
[28] = molecular target: Serine/threonine-protein kinase OSR1 (Homo sapiens) (UniProt O95747); conditions: Compound concentration 1000.0 nM
[29] = molecular target: Casein kinase I isoform gamma-3 (Homo sapiens) (UniProt Q9Y6M4); conditions: Compound concentration 1000.0 nM
[30] = molecular target: Mitogen-activated protein kinase kinase kinase 1 (Homo sapiens) (UniProt Q13233); conditions: Compound concentration 1000.0 nM
[31] = molecular target: Serine/threonine-protein kinase TNNI3K (Homo sapiens) (UniProt Q59H18); conditions: Compound concentration 1000.0 nM
[32] = test system: Mast/stem cell growth factor receptor Kit (Homo sapiens), P10721 [D816V]; conditions: Compound concentration 1000.0 nM
[33] = molecular target: Activin receptor type-1 (Homo sapiens) (UniProt Q04771); conditions: Compound concentration 1000.0 nM
[34] = test system: Receptor-type tyrosine-protein kinase FLT3 (Homo sapiens), P36888 [D835Y]; conditions: Compound concentration 1000.0 nM
[35] = molecular target: Ephrin type-B receptor 2 (Homo sapiens) (UniProt P29323); conditions: Compound concentration 1000.0 nM
[36] = molecular target: Homeodomain-interacting protein kinase 4 (Homo sapiens) (UniProt Q8NE63); conditions: Compound concentration 1000.0 nM
[37] = molecular target: Serine/threonine-protein kinase MARK2 (Homo sapiens) (UniProt Q7KZI7); conditions: Compound concentration 1000.0 nM
[38] = molecular target: Serine/threonine-protein kinase PLK1 (Homo sapiens) (UniProt P53350); conditions: Compound concentration 1000.0 nM
[39] = molecular target: 5-hydroxytryptamine receptor 2B (Homo sapiens, UniProt P41595); conditions: Compound concentration 10.0 uM
[40] = molecular target: Mitogen-activated protein kinase 4 (Homo sapiens) (UniProt P31152); conditions: Compound concentration 1000.0 nM
[41] = molecular target: TGF-beta receptor type-1 (Homo sapiens) (UniProt P36897); conditions: Compound concentration 1000.0 nM
[42] = molecular target: Serine/threonine-protein kinase BRSK1 (Homo sapiens) (UniProt Q8TDC3); conditions: Compound concentration 1000.0 nM
[43] = molecular target: Proto-oncogene tyrosine-protein kinase Src (Homo sapiens) (UniProt P12931); conditions: Compound concentration 1000.0 nM
[44] = molecular target: Serine/threonine-protein kinase Sgk1 (Homo sapiens) (UniProt O00141); conditions: Compound concentration 1000.0 nM
[45] = molecular target: Tyrosine-protein kinase Lck (Homo sapiens) (UniProt P06239); conditions: Compound concentration 1000.0 nM

Chain of cAMP-dependent protein kinase catalytic subunit PRKX (Homo sapiens) (P51817 whole entry): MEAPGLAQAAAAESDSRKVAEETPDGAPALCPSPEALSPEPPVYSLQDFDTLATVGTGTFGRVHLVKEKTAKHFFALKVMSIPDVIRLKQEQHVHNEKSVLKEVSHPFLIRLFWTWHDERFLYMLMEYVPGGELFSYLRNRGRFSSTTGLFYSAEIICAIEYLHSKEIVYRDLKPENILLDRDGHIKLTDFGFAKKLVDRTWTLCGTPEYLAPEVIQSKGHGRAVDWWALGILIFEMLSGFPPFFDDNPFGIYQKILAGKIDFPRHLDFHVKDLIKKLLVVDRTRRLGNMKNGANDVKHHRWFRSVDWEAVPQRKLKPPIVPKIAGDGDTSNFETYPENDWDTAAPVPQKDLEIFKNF
Chain of Serine/threonine-protein kinase 33 (Homo sapiens) (Q9BYT3 whole entry, looked up): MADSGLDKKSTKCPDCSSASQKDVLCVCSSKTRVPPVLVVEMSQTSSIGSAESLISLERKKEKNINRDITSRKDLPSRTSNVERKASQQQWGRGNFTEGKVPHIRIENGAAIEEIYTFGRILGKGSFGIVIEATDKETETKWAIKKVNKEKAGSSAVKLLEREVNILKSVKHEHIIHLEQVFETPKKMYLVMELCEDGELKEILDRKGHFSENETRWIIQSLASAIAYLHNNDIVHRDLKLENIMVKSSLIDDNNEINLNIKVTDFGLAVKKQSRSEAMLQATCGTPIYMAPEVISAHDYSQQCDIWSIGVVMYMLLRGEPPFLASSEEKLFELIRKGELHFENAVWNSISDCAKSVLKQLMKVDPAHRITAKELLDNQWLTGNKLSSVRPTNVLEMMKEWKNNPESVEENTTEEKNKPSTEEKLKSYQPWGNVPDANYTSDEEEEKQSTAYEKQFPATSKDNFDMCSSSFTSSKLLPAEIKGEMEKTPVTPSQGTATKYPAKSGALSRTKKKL
Chain of Cyclin-dependent kinase 15 (Homo sapiens) (Q96Q40 whole entry): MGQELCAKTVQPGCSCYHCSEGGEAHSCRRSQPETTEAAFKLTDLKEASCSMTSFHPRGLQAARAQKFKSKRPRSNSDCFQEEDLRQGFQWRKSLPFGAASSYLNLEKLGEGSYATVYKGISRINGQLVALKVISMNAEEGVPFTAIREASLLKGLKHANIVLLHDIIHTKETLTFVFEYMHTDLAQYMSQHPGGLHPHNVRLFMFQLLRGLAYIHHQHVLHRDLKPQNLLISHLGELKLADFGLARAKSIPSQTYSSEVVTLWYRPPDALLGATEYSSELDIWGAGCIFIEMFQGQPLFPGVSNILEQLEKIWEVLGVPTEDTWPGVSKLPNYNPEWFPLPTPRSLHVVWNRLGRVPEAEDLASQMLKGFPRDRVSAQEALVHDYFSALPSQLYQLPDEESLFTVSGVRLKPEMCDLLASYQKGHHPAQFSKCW
Chain of 5-hydroxytryptamine receptor 2B (P41595 whole entry): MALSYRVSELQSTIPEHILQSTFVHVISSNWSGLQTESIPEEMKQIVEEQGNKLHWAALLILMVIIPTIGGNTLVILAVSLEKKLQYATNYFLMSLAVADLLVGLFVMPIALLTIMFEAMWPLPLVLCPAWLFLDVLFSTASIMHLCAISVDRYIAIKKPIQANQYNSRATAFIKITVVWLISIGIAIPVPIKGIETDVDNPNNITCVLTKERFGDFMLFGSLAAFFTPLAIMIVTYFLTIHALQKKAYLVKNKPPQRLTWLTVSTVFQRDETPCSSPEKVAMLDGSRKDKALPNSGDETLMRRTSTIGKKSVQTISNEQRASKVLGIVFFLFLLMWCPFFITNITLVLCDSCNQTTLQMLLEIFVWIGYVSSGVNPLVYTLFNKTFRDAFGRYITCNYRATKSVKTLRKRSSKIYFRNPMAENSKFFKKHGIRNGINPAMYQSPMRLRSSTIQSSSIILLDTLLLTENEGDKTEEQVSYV
Chain of Serine/threonine-protein kinase TAO1 (Homo sapiens) (Q7L7X3 whole entry): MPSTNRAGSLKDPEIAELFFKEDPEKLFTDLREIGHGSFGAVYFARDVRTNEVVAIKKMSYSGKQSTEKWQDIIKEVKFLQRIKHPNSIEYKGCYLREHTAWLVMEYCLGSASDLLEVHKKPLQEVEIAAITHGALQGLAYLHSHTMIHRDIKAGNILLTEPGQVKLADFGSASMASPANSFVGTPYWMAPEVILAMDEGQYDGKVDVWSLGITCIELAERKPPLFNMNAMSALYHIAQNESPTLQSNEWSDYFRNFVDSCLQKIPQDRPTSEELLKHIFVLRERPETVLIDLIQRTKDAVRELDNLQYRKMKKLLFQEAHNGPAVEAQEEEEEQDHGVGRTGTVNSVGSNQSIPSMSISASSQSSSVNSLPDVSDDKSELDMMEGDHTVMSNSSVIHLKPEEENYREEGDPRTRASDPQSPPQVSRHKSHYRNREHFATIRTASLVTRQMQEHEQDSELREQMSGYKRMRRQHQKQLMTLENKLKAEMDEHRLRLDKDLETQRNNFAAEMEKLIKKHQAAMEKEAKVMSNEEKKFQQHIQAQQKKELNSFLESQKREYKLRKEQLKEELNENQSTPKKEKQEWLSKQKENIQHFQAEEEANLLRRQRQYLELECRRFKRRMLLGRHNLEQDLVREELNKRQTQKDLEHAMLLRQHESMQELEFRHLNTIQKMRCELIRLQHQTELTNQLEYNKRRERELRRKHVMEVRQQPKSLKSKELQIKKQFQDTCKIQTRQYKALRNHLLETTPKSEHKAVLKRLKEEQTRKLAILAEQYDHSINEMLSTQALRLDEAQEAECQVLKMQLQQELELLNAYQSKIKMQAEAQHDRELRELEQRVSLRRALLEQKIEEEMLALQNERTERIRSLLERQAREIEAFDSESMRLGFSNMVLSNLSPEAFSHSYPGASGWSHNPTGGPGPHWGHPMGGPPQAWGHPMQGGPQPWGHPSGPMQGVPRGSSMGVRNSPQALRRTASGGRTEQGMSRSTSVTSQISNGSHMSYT
Chain of Serine/threonine-protein kinase OSR1 (Homo sapiens) (O95747 2-527 limits assumed): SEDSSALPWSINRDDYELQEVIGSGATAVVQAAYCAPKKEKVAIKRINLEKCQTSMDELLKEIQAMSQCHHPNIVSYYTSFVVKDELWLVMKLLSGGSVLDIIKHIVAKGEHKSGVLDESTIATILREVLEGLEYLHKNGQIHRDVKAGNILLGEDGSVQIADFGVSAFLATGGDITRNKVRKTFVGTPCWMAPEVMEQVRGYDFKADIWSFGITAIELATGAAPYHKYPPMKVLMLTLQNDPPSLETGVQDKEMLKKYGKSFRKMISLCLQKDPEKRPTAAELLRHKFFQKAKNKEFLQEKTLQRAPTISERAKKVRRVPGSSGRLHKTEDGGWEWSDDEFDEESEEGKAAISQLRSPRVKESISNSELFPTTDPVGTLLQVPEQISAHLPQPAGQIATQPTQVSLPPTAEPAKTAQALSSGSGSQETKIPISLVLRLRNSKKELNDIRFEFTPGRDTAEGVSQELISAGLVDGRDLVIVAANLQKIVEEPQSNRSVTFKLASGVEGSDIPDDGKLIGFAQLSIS
Chain of Serine/threonine-protein kinase Sgk3 (Homo sapiens) (Q96BR1 whole entry): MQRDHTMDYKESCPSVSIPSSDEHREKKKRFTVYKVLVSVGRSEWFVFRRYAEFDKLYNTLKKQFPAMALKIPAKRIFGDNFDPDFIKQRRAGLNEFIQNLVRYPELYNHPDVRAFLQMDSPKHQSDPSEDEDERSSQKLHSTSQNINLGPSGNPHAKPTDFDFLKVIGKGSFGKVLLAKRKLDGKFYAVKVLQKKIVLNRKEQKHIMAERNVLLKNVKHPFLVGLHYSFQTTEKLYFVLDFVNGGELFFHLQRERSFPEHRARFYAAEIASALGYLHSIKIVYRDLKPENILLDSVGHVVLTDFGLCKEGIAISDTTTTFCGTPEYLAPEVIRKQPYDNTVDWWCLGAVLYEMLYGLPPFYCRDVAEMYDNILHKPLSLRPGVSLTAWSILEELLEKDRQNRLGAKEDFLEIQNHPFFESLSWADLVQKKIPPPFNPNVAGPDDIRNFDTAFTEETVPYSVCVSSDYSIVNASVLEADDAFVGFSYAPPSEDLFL
Chain of Activin receptor type-1 (Homo sapiens) (Q04771 whole entry): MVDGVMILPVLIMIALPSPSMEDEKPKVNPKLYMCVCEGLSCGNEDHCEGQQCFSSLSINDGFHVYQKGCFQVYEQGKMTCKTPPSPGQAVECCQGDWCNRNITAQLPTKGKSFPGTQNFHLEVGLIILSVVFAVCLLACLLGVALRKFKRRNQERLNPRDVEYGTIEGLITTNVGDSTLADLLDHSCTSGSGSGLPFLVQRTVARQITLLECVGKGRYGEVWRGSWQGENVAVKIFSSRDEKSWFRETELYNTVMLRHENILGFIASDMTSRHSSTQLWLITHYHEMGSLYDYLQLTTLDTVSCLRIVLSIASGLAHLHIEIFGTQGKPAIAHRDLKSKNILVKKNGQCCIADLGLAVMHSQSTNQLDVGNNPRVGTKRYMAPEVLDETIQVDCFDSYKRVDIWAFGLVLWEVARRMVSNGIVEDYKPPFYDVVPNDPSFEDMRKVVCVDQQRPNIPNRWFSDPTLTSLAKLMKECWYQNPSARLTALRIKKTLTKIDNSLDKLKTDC
Chain of Casein kinase I isoform gamma-3 (Homo sapiens) (Q9Y6M4 whole entry, looked up, canonical isoform): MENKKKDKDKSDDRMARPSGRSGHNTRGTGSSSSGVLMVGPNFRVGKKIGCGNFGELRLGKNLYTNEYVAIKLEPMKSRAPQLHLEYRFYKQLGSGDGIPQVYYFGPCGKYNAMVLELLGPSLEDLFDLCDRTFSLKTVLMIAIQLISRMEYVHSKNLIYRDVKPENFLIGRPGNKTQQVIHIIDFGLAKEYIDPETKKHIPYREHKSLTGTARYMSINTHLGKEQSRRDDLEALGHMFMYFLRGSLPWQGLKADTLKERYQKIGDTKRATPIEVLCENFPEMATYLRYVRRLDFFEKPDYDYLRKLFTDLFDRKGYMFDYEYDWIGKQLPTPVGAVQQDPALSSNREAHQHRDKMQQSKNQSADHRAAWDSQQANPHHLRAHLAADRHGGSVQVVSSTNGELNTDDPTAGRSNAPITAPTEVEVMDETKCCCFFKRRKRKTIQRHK

COc1cccc(CNC(=O)c2nc3scc(COCc4ccc(C(=O)O)cc4)c3c(=O)[nH]2)c1 [T-26c]
inactive: residual activity [1] 100% | residual activity [2] 77.2% | inhibition [3] 29.9% | residual activity [4] 100% | residual activity [5] 83.8% | residual activity [6] 100% | residual activity [7] 67.1% | residual activity [8] 100% | residual activity [9] 72.9% | residual activity [10] 77.8% | residual activity [11] 94.6% | residual activity [12] 69.2% | residual activity [13] 72.2% | residual activity [14] 100% | residual activity [15] 89.2% | residual activity [16] 65.5% | residual activity [17] 91.4% | residual activity [18] 83% | residual activity [19] 100% | residual activity [20] 85.4% | residual activity [21] 67.3% | residual activity [22] 100% | residual activity [23] 99.8% | inhibition [24] 17.6% | residual activity [25] 97.6% | residual activity [26] 69.5% | residual activity [27] 100% | residual activity [28] 71.9% | residual activity [29] 96.6% | residual activity [30] 63.1% | residual activity [31] 95.5% | residual activity [32] 100% | residual activity [33] 94.3% | residual activity [34] 94.3% | residual activity [35] 95.7% | residual activity [36] 94.3% | residual activity [37] 100% | residual activity [38] 54.1% | inhibition [39] -9.07% | residual activity [40] 80% | residual activity [41] 83.2% | residual activity [42] 100% | residual activity [43] 100% | residual activity [44] 93.4% | residual activity [45] 100%
